Structures can show the parent of a compound that is named as a salt. Where two headings read alike, the source gives them in different places. Each block holds one molecule with its values, some of them ahead of it.
Legend:
[1] = Solubility and solution stability; format: physicochemical
Experimental: Solutions of the polyene antibiotics amphotericin B (30 mM) and nystatin (50 mM) were prepared in DMSO. The primaricin aqueous suspension obtained from Sigma was lyophilized and resuspended in various solvents. […] The polyene antibiotics were combined with the various lipids in a solvent mixture of DMSO, DMSO:MP or DMSO:EtOH (7:3) and then injected into the aqueous phase. The preparations formed were transferred to a dialysis bag and dialyzed versus 100 volumes of distilled water, changed twice unless otherwise indicated. The ratio of the components, exact solvent mixtures and other conditions are given in the results. Samples of the preparations were dissolved in methanol and the polyene concentration determined spectrophotometrically (Szoka et al., supra): amphotericin B at 406 nm, nystatin at 306 nm and primaricin at 318 nm.

[2] = pH 7.4; cited from earlier work
A. fumigatus = test: Immunosuppressive neutropenic rabbit model of invasive aspergillosis, organ cultures; format: in vivo, A. fumigatus (in rabbits); details: 30 days; Free AmpB 4.5 mg/Kg/day; Lipidic-AmpB 6-9 mg/Kg/day
[3] = Acute mortality (death within 24 hours of drug administration) in immunosuppressed rabbits challenged with A. fumigatus; format: in vivo, rabbit; details: animals dead/total
Experimental: Liposomes were prepared with amphotericin B and cholesterol sulfate as described in Example 3. An immunosuppressive neutropenic rabbit model of invasive aspergillosis was used to compare the lipidic particle formulation with free amphotericin B.
Twenty-eight rabbits were immunosuppressed by administration of cyclophosphamide and triamcinolone. The rabbits were then challenged with 10^6 A. fumigatus. After 24 hours, the rabbits were divided into three treatment groups: eight rabbits received 4.5 mg/Kg/day free amphotericin B; four rabbits received 7.5 mg/Kg/day free amphotericin B; five rabbits received 6-9 mg/Kg/day amphotericin B lipidic particles (equivalent to 3-4.5 mg/Kg/day amphotericin B); three rabbits received 15 mg/Kg/day amphotericin B lipidic particles (equivalent to 7.5 mg/Kg/day amphotericin B); and eight rabbits were controls.
Treatment was continued for 30 days for the 4.5 mg/Kg free amphotericin B and 6-9 mg/Kg lipidic particle treatment groups.

solubility in DMSO [1]: soluble
Molecule: CC(C)CCC[C@@H](C)[C@H]1CC[C@H]2[C@@H]3CC=C4C[C@@H](OC(=O)CCC(=O)O)CC[C@]4(C)[C@H]3CC[C@]12C [Chems, cholesterol hemisuccinate]

Molecule: COc1cccc2c1C(=O)c1c(O)c3c(c(O)c1C2=O)C[C@@](O)(C(=O)CO)C[C@@H]3O[C@H]1C[C@H](N)[C@H](O)[C@H](C)O1 [doxorubicin]
solubility in DMSO ([1]; DMSO): very soluble
aqueous solubility [2]: low aqueous solubility

solubility in 1-methyl-2-pyrrolidinone ([1]; 1-methyl-2-pyrrolidinone): exceedingly soluble
Molecule: CC(C)CCC[C@@H](C)[C@H]1CC[C@H]2[C@@H]3CC=C4C[C@@H](O)CC[C@]4(C)[C@H]3CC[C@]12C [Cholesterol]

solubility in DMSO [1]: very soluble
stability of solution in DMSO:MP [1]: stable yellow solution
Molecule: CC1C/C=C/C=C/C=C/C=C/C(OC2OC(C)C(O)C(N)C2O)CC2OC(O)(CC(O)CC3OC3/C=C/C(=O)O1)CC(O)C2C(=O)O (stereo not shown) [Primaricin]

Molecule: cis-platinum
solubility in DMSO ([1]; DMSO): exceedingly soluble

Molecule: CC(C)CCC[C@@H](C)[C@H]1CC[C@H]2[C@@H]3CC=C4C[C@@H](OS(=O)(=O)O)CC[C@]4(C)[C@H]3CC[C@]12C [CholSO4, cholesterol sulfate]
solubility in DMSO ([1]; DMSO): soluble

Molecule: CC1/C=C/C=C/C=C/C=C/C=C/C=C/C=C/C(OC2OC(C)C(O)C(N)C2O)CC2OC(O)(CC(O)CC(O)C(O)CCC(O)CC(O)CC(=O)OC(C)C(C)C1O)CC(O)C2C(=O)O (stereo not shown) [Free AmpB]
Organ Cultures (No. Sterile/Total), Kidney (A. fumigatus): 5/5
Organ Cultures (No. Sterile/Total), Liver (A. fumigatus): 5/5
Organ Cultures (No. Sterile/Total), Lung (A. fumigatus): 3/5
Acute mortality (death within 24 hours) ([3]; 4.5 mg/Kg): 3/8
Acute mortality (death within 24 hours) ([3]; 7.5 mg/Kg): 4/4

Source: patent publication US5549910A, “Preparation of liposome and lipid complex compositions” (priority 1994, dated 1996)
